The record followed here is PubChem BioAssay AID256 (DTP/NCI, 2004).

The structures appear in SMILES notation. Values joined by “and” are separate entries in the source; they are usually repeats but may differ in a detail not shown here. Equal entries are not always repeated. Toxic doses and inconclusive results are not listed.

The subject of this experiment is CD2F1 mice, L1210 leukemia ip, survival T/C. Put plainly: NCI In Vivo Anticancer Drug Screen. Data for tumor model L1210 Leukemia (intraperitoneal) in CD2F1 (CDF1) mice. The note with it: higher = longer survival. Put shortly: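 Tumor-bearing mice (transplanted tumor) were split into treated and vehicle control groups, and the measured endpoint of each treated group was divided by that of its vehicle controls.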

[1] abbreviates: endpoint: mean survival time, dose: 100.0 mg/kg/injection, schedule: Q01DX001 (ip), vehicle: saline with Tween-80.
[2] abbreviates: endpoint: mean survival time, dose: 100.0 mg/kg/injection, schedule: Q01DX009 (ip), vehicle: saline with Tween-80.
Setting [3] is: endpoint: mean survival time, dose: 100.0 mg/kg/injection, schedule: Q04DX002 (ip), vehicle: saline with Tween-80.
[4] abbreviates: endpoint: mean survival time, dose: 200.0 mg/kg/injection, schedule: Q01DX009 (ip), vehicle: saline with Tween-80.
[5] abbreviates: endpoint: mean survival time, dose: 400.0 mg/kg/injection, schedule: Q01DX009 (ip), vehicle: saline with Tween-80.
Setting [6] is: endpoint: mean survival time, dose: 100.0 mg/kg/injection, schedule: Q04DX003 (ip), vehicle: saline with Tween-80.
Setting [7] is: endpoint: mean survival time, dose: 200.0 mg/kg/injection, schedule: Q04DX003 (ip), vehicle: saline with Tween-80.
The mark [8] stands for this setting: endpoint: mean survival time, dose: 400.0 mg/kg/injection, schedule: Q04DX003 (ip), vehicle: saline with Tween-80.
[9] abbreviates: endpoint: mean survival time, dose: 50.0 mg/kg/injection, schedule: Q04DX003 (ip), vehicle: saline with Tween-80.
Setting [10] is: endpoint: mean survival time, dose: 100.0 mg/kg/injection, schedule: Q01DX001 (ip), vehicle: saline.
Setting [11] is: endpoint: mean survival time, dose: 200.0 mg/kg/injection, schedule: Q01DX001 (ip), vehicle: saline.
[12] abbreviates: endpoint: mean survival time, dose: 400.0 mg/kg/injection, schedule: Q01DX001 (ip), vehicle: saline.
Where [13] appears, read: endpoint: mean survival time, dose: 50.0 mg/kg/injection, schedule: Q01DX009 (ip), vehicle: saline with Tween-80.
The mark [14] stands for this setting: endpoint: mean survival time, dose: 10.0 mg/kg/injection, schedule: Q04DX003 (ip), vehicle: saline with Tween-80.

`CC(=O)Oc1ccc(Nc2c3ccccc3nc3ccccc23)cc1`: the T/C (endpoint: mean survival time, dose: 44.0 mg/kg/injection, schedule: Q01DX001 (ip), vehicle: saline with Tween-80) is 119 % of control; the T/C (endpoint: mean survival time, dose: 44.0 mg/kg/injection, schedule: Q01DX009 (ip), vehicle: saline with Tween-80) is 155 % of control; the T/C (endpoint: mean survival time, dose: 66.0 mg/kg/injection, schedule: Q01DX001 (ip), vehicle: saline with Tween-80) is 109 % of control; the T/C (endpoint: mean survival time, dose: 66.0 mg/kg/injection, schedule: Q01DX009 (ip), vehicle: saline with Tween-80) is 94 % of control; the T/C under setting [1] is 152 % of control; the T/C under setting [2] is 88 % of control. In addition, the T/C under setting [3] was 177 % of control.
As for `CCCN1CSC(=S)N(Cc2ccccc2)C1`, the T/C was 92 % of control under setting [2], 97 % of control under setting [4] and 92 % of control under setting [5].
Consider `COc1c(/C=C/CO)cc2c(c1OC)OCO2`, for which the T/C by setting is: under setting [6], 95 % of control; under setting [7], 102 % of control; under setting [8], 102 % of control.
Consider `C[N+](C)(CC(=O)Nc1ccc(Cl)c(Cl)c1)Cc1ccc(Cl)c(Cl)c1`, for which the T/C was 101 % of control (endpoint: mean survival time, dose: 6.25 mg/kg/injection, schedule: Q01DX001 (ip), vehicle: saline with Tween-80); 94 % of control (endpoint: mean survival time, dose: 6.25 mg/kg/injection, schedule: Q01DX009 (ip), vehicle: saline sonified); 103 % of control (endpoint: mean survival time, dose: 12.5 mg/kg/injection, schedule: Q01DX001 (ip), vehicle: saline with Tween-80); 93 % of control (endpoint: mean survival time, dose: 12.5 mg/kg/injection, schedule: Q01DX009 (ip), vehicle: saline sonified); 105 % of control (endpoint: mean survival time, dose: 25.0 mg/kg/injection, schedule: Q01DX001 (ip), vehicle: saline with Tween-80); 86 % of control (endpoint: mean survival time, dose: 25.0 mg/kg/injection, schedule: Q01DX009 (ip), vehicle: saline sonified).
For the molecule `C/C=C/C=C/C(=O)c1ccc(OC)cc1O`, the T/C reads like this: (endpoint: mean survival time, dose: 50.0 mg/kg/injection, schedule: Q04DX002 (ip), vehicle: saline with Tween-80) 86 % of control; under setting [3], 101 % of control; (endpoint: mean survival time, dose: 200.0 mg/kg/injection, schedule: Q04DX002 (ip), vehicle: saline with Tween-80) 89 % of control; (endpoint: mean survival time, dose: 400.0 mg/kg/injection, schedule: Q04DX002 (ip), vehicle: saline with Tween-80) 89 % of control.
Consider `CCCCCCCCCCCC#N`, for which the T/C (endpoint: mean survival time, dose: 100.0 mg/kg/injection, schedule: Q04DX003 (ip), vehicle: Klucel (hydroxypropylcellulose) (HPC)) is 102 % of control; the T/C (endpoint: mean survival time, dose: 200.0 mg/kg/injection, schedule: Q04DX003 (ip), vehicle: Klucel (hydroxypropylcellulose) (HPC)) is 97 % of control; the T/C (endpoint: mean survival time, dose: 400.0 mg/kg/injection, schedule: Q04DX003 (ip), vehicle: Klucel (hydroxypropylcellulose) (HPC)) is 104 % of control.
Regarding `CC(C)N(CCN(C)C(=O)C(O)(c1ccccc1)c1ccccc1)C(C)C`, the T/C is, setting by setting: under setting [9], 101 % of control; under setting [6], 93 % of control and 98 % of control; under setting [7], 104 % of control.
As to `OCCO`, the T/C reads like this: (endpoint: mean survival time, dose: 100.0 mg/kg/injection, schedule: Q01DX009 (ip), vehicle: saline sonified) 94 % of control and 101 % of control; (endpoint: mean survival time, dose: 100.0 mg/kg/injection, schedule: Q04DX003 (ip), vehicle: saline) 103 % of control and 106 % of control; (endpoint: mean survival time, dose: 200.0 mg/kg/injection, schedule: Q01DX009 (ip), vehicle: saline sonified) 94 % of control and 101 % of control; (endpoint: mean survival time, dose: 200.0 mg/kg/injection, schedule: Q04DX003 (ip), vehicle: saline) 104 % of control and 98 % of control; (endpoint: mean survival time, dose: 400.0 mg/kg/injection, schedule: Q01DX009 (ip), vehicle: saline sonified) 93 % of control and 104 % of control; (endpoint: mean survival time, dose: 400.0 mg/kg/injection, schedule: Q04DX003 (ip), vehicle: saline) 104 % of control and 101 % of control. The T/C by setting is: (endpoint: median survival time, dose: 0.25 % in 0.5 ml injection vol, schedule: Q01DX009 (ip), vehicle: water) 95 % of control; (endpoint: median survival time, dose: 0.5 % in 0.5 ml injection vol, schedule: Q01DX009 (ip), vehicle: water) 94 % of control; (endpoint: median survival time, dose: 1.0 % in 0.5 ml injection vol, schedule: Q01DX009 (ip), vehicle: water) 94 % of control; (endpoint: median survival time, dose: 2.0 % in 0.5 ml injection vol, schedule: Q01DX009 (ip), vehicle: water) 105 % of control.
Regarding `O=C(OCCO)c1ccccc1`, the T/C by setting is: under setting [2], 98 % of control; under setting [6], 95 % of control; under setting [4], 97 % of control; under setting [7], 98 % of control; under setting [5], 97 % of control; under setting [8], 103 % of control.
As for `CC12C3C4C5C3C1(C)C(C42)C51OCCO1` (stereo not drawn), the T/C is, setting by setting: (endpoint: mean survival time, dose: 12.5 mg/kg/injection, schedule: Q04DX002 (ip), vehicle: saline with Tween-80) 100 % of control; (endpoint: mean survival time, dose: 25.0 mg/kg/injection, schedule: Q04DX002 (ip), vehicle: saline with Tween-80) 100 % of control.
As for `COc1ccc(OCC(O)CO)cc1` (stereo not drawn), the T/C by setting is: under setting [10], 102 % of control; under setting [11], 102 % of control; under setting [12], 97 % of control.
Take `S=P(Cc1ccccc1)(c1ccccc1)c1ccccc1`: the T/C is 89 % of control under setting [13], 90 % of control under setting [2], 88 % of control under setting [6] and 86 % of control under setting [7].
Consider `Clc1ccc(C(c2ccccc2Cl)C(Cl)Cl)cc1` (stereo not drawn), for which the T/C (endpoint: mean survival time, dose: 62.5 mg/kg/injection, schedule: Q01DX009 (sc), vehicle: steriod suspending solution) was 95 % of control and 106 % of control; the T/C (endpoint: mean survival time, dose: 125.0 mg/kg/injection, schedule: Q01DX009 (sc), vehicle: steriod suspending solution) is 98 % of control and 102 % of control; the T/C (endpoint: mean survival time, dose: 250.0 mg/kg/injection, schedule: Q01DX009 (sc), vehicle: steriod suspending solution) was 95 % of control and 105 % of control; the T/C (endpoint: mean survival time, dose: 500.0 mg/kg/injection, schedule: Q01DX009 (sc), vehicle: steriod suspending solution) was 101 % of control and 106 % of control.
For the molecule `Cc1ccccc1N=C(N)Nc1ccccc1C`, the T/C under setting [14] was 98 % of control.
For `CS(=O)(=O)OC1CS(=O)(=O)Cc2ccccc21` (stereo not drawn), the T/C reads like this: (endpoint: mean survival time, dose: 100.0 mg/kg/injection, schedule: Q01DX001 (ip), vehicle: carboxymethylcellulose (CMC)) 101 % of control; (endpoint: mean survival time, dose: 200.0 mg/kg/injection, schedule: Q01DX001 (ip), vehicle: carboxymethylcellulose (CMC)) 101 % of control; (endpoint: mean survival time, dose: 400.0 mg/kg/injection, schedule: Q01DX001 (ip), vehicle: carboxymethylcellulose (CMC)) 101 % of control.
As for `O=C1c2cscc2C(=O)c2c(Cl)sc(Cl)c21`, the T/C is 96 % of control (endpoint: mean survival time, dose: 12.5 mg/kg/injection, schedule: Q04DX003 (ip), vehicle: saline with Tween-80); 103 % of control (endpoint: mean survival time, dose: 25.0 mg/kg/injection, schedule: Q01DX009 (ip), vehicle: saline with Tween-80); 98 % of control (endpoint: mean survival time, dose: 25.0 mg/kg/injection, schedule: Q04DX003 (ip), vehicle: saline with Tween-80); 97 % of control under setting [13]; 90 % of control under setting [9]; 91 % of control under setting [2]. The T/C under setting [6] is 100 % of control.
With `O=C(CCCCl)Nc1cc([N+](=O)[O-])ccc1OCc1ccccc1`, the T/C under setting [10] is 94 % of control, the T/C under setting [11] is 94 % of control and the T/C under setting [12] was 94 % of control.
Take `COc1ccc2cc3[n+](cc2c1OC)CCc1cc2c(cc1-3)OCO2`: the T/C was 106 % of control (endpoint: mean survival time, dose: 5.0 mg/kg/injection, schedule: Q01DX009 (ip), vehicle: saline with Tween-80); 98 % of control (endpoint: mean survival time, dose: 5.0 mg/kg/injection, schedule: Q04DX003 (ip), vehicle: saline with Tween-80); 93 % of control (endpoint: mean survival time, dose: 10.0 mg/kg/injection, schedule: Q01DX009 (ip), vehicle: saline with Tween-80); 96 % of control under setting [14]; 94 % of control (endpoint: mean survival time, dose: 20.0 mg/kg/injection, schedule: Q04DX003 (ip), vehicle: saline with Tween-80).
Regarding `C=CCOCC(O)CNCCCC` (stereo not drawn), the T/C (endpoint: mean survival time, dose: 12.5 mg/kg/injection, schedule: Q01DX009 (ip), vehicle: saline) was 96 % of control; the T/C (endpoint: mean survival time, dose: 25.0 mg/kg/injection, schedule: Q01DX009 (ip), vehicle: saline) was 107 % of control; the T/C (endpoint: mean survival time, dose: 50.0 mg/kg/injection, schedule: Q01DX009 (ip), vehicle: saline) was 96 % of control and 111 % of control.
For the molecule `CC(=O)NCC(O)C(O)C(O)C(O)COC(=O)c1ccccc1` (stereo not drawn), the T/C runs as follows: under setting [1], 95 % of control; (endpoint: mean survival time, dose: 200.0 mg/kg/injection, schedule: Q01DX001 (ip), vehicle: saline with Tween-80) 95 % of control; (endpoint: mean survival time, dose: 400.0 mg/kg/injection, schedule: Q01DX001 (ip), vehicle: saline with Tween-80) 96 % of control.
